Assay results taken from PubChem BioAssay (NCI).
Values joined by “and” are separate entries in the source; they are usually repeats but may differ in a detail not shown here. Identical values can stand only once.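 The compound was tested at five concentrations on cells cultured in 96-well plates, with a 48-hour exposure period. The concentration for 50% growth inhibition is given as GI50. TGI is the concentration that stops growth completely.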

Legend:
Assay in all cases: inhibition of tumour cell growth, NCI panel, 48 h
[1] = tested on: HOP-92 NSCLC
[2] = tested on: HS 578T breast
[3] = tested on: HT29 colon
[4] = tested on: MDA-MB-231 breast
[5] = tested on: MOLT-4 leukemia
[6] = tested on: NCI-H23 lung
[7] = tested on: RPMI-8226 leukemia
[8] = tested on: SF-268 CNS
[9] = tested on: SF-539 CNS
[10] = tested on: SW-620 colon

CCCCCCCCCCCCCC1=NC(C)(C)CN1C(C)C
GI50 [1]: 0.655 µM | TGI [1]: 2.19 µM | GI50 [2]: 1.79 µM | TGI [2]: 3.86 µM | GI50 [3]: 0.422 µM | TGI [3]: 1.47 µM | GI50 [4]: 1.52 µM | TGI [4]: 2.89 µM | GI50 [5]: 1.56 µM | TGI [5]: 3.26 µM | GI50 [6]: 1.67 µM | TGI [6]: 3.11 µM | GI50 [7]: 1.2 µM | TGI [7]: 3.03 µM | GI50 [8]: 1.76 µM | TGI [8]: 3.14 µM | GI50 [9]: 1.65 µM | TGI [9]: 3.01 µM | GI50 [10]: 1.58 µM | TGI [10]: 2.92 µM

CCN(CC)CCC(CNc1ccnc2cc(Cl)ccc12)c1ccc(OC)cc1 (stereo not given)
GI50 [1]: 2.42 µM and 2.12 µM | TGI [1]: 14.3 µM and 11.5 µM | GI50 [2]: 5.51 µM and 7.53 µM | TGI [2]: 23.4 µM and 34.3 µM | GI50 [3]: 2.47 µM and 0.6 µM | TGI [3]: 13.2 µM and 11.2 µM | GI50 [4]: 2.34 µM and 2.42 µM | TGI [4]: 11.2 µM and 10.9 µM | GI50 [5]: 6.77 µM and 4.68 µM | TGI [5]: 41.4 µM and 50.9 µM | GI50 [6]: 9.4 µM and 10 µM | TGI [6]: 26.9 µM and 28.6 µM | GI50 [7]: 7.14 µM and 2.12 µM | TGI [7]: 35.5 µM and 8.15 µM | GI50 [8]: 4.19 µM and 5.23 µM | TGI [8]: 18.4 µM and 21.4 µM | GI50 [9]: 1.56 µM and 1.7 µM | TGI [9]: 3.17 µM and 3.6 µM | GI50 [10]: 8.16 µM and 4.1 µM | TGI [10]: 22.6 µM and 21.7 µM

N#CC(=C1C=CC(=NO)C=C1)c1ccccc1
GI50 [1]: 2.49 µM | TGI [1]: 9.46 µM | GI50 [2]: 2.39 µM | TGI [2]: 6.68 µM | GI50 [3]: 2.16 µM | TGI [3]: 6.69 µM | GI50 [4]: 1.73 µM | TGI [4]: 5.17 µM | GI50 [5]: 3.04 µM | TGI [5]: 18.4 µM | GI50 [6]: 9.92 µM | TGI [6]: 34.1 µM | GI50 [7]: 0.348 µM | TGI [7]: 1.83 µM | GI50 [8]: 1.37 µM | TGI [8]: 6.06 µM | GI50 [9]: 0.92 µM | TGI [9]: 3.37 µM | GI50 [10]: 0.473 µM | TGI [10]: 2.36 µM

O=C1c2cccc(NCCCNCCO)c2C(=O)c2cccc(NCCCNCCO)c21
TGI [1]: 4.08 µM | TGI [2]: 2.65 µM | TGI [3]: 4.43 µM and 5.38 µM | TGI [4]: 3.37 µM | TGI [5]: 13.1 µM and 8.29 µM | TGI [6]: 6.08 µM and 4.38 µM | TGI [7]: 5.58 µM and 6.85 µM | GI50 [8]: 0.58 µM and 1.5 µM | TGI [8]: 2.82 µM and 4.69 µM | TGI [9]: 4.13 µM and 2.84 µM | TGI [10]: 3.41 µM and 7.57 µM

COc1ccc2c(c1)CCCC(Br)C2=O (stereo not given)
TGI [1]: 23.3 µM | TGI [2]: > 94.3 µM | TGI [3]: 20.2 µM | TGI [4]: 10.9 µM | TGI [5]: > 48.5 µM | TGI [6]: 26.3 µM | TGI [7]: 5.5 µM | TGI [8]: 12.5 µM | TGI [9]: > 19.9 µM | TGI [10]: > 33.3 µM

CC(C)CCN1c2nc(Nc3cc(F)c(O)c(F)c3)ncc2N(C)C(=O)C1C (stereo not given)
GI50 [1]: 0.591 µM | TGI [1]: 14.9 µM | GI50 [2]: 3.22 µM | TGI [2]: 32.1 µM | GI50 [3]: 5.83 µM | TGI [3]: 46.7 µM | GI50 [4]: 5.17 µM | TGI [4]: > 100 µM | GI50 [5]: 4.1 µM | TGI [5]: 19.9 µM | GI50 [6]: 5.27 µM | TGI [6]: 67.8 µM | GI50 [7]: 2.82 µM | TGI [7]: 11.5 µM | GI50 [8]: 5.81 µM | TGI [8]: 56.8 µM | GI50 [9]: 4.26 µM | TGI [9]: 21.8 µM | GI50 [10]: 4.09 µM | TGI [10]: 27.4 µM

NC(=O)NC1C(c2ccccc2)=C1c1ccccc1
TGI [1]: 38.1 µM | TGI [2]: > 100 µM | TGI [3]: 46.1 µM | TGI [4]: 38.2 µM | TGI [5]: 17.7 µM | TGI [6]: 61.4 µM | TGI [7]: 45.4 µM | TGI [8]: 32 µM | TGI [9]: 31.2 µM | TGI [10]: 37.5 µM

Cn1nc(N)c2cc([C@@H]3Nc4ccc5[nH]ncc5c4[C@H]4C5CCC(C5)[C@@H]34)ccc21 (stereo not given in full)
GI50 [1]: 1.51 µM | TGI [1]: 17.9 µM | GI50 [2]: 0.373 µM | TGI [2]: 43.4 µM | GI50 [3]: 0.387 µM | TGI [3]: > 38.1 µM | GI50 [4]: 2.31 µM | TGI [4]: 16.8 µM | GI50 [5]: 0.556 µM | TGI [5]: > 51 µM | GI50 [6]: 0.643 µM | TGI [6]: 17.4 µM | GI50 [7]: 0.36 µM | TGI [7]: 3.69 µM | GI50 [8]: 1.32 µM | TGI [8]: 41 µM | GI50 [9]: 0.333 µM | TGI [9]: 5.09 µM | GI50 [10]: 0.391 µM | TGI [10]: 28 µM

N#Cc1c(NN)n(C2OC(CO)C(O)C2O)c2ncnc(N)c12 (stereo not given)
GI50 [1]: 0.142 µM | TGI [1]: 1.43 µM | GI50 [2]: 0.0382 µM | TGI [2]: 0.429 µM | GI50 [3]: 0.0351 µM | GI50 [4]: 0.284 µM | TGI [4]: > 24.1 µM | GI50 [5]: 0.095 µM | TGI [5]: 0.402 µM | GI50 [6]: 0.218 µM | TGI [6]: 2.47 µM | GI50 [7]: 0.105 µM | TGI [7]: 0.614 µM | GI50 [8]: 0.171 µM | TGI [8]: > 45.3 µM | GI50 [9]: 0.337 µM | TGI [9]: 1.48 µM | GI50 [10]: 0.0254 µM | TGI [10]: 1.18 µM

CCC(C)n1ncn(-c2ccc(N3CCN(c4ccc(OCC5COC(Cn6cncn6)(c6ccc(Cl)cc6Cl)O5)cc4)CC3)cc2)c1=O (stereo not given)
GI50 [1]: 0.335 µM | TGI [1]: 24.5 µM | GI50 [2]: 7.42 µM | TGI [2]: > 100 µM | GI50 [3]: 0.867 µM | TGI [3]: > 100 µM | GI50 [4]: 7.11 µM | TGI [4]: > 100 µM | GI50 [5]: > 100 µM | TGI [5]: > 100 µM | GI50 [6]: 27.8 µM | TGI [6]: > 100 µM | GI50 [7]: 0.973 µM | TGI [7]: > 100 µM | GI50 [8]: 33.6 µM | TGI [8]: > 100 µM | GI50 [9]: 7.73 µM | TGI [9]: > 100 µM | GI50 [10]: > 100 µM | TGI [10]: > 100 µM

O=C(Nc1ccc(Cl)cc1F)c1ccccc1O
GI50 [1]: 1.42 µM | TGI [1]: 4.59 µM | GI50 [2]: 2.68 µM | TGI [2]: 23.2 µM | GI50 [3]: 5.32 µM | TGI [3]: 92.9 µM | GI50 [4]: 1.44 µM | TGI [4]: 3.79 µM | GI50 [5]: 3.49 µM | TGI [5]: 13.5 µM | GI50 [6]: 2.12 µM | TGI [6]: 6.13 µM | GI50 [7]: 1.97 µM | TGI [7]: 7.32 µM | GI50 [8]: 3.63 µM | TGI [8]: > 100 µM | GI50 [9]: 2.94 µM | TGI [9]: 18.5 µM | GI50 [10]: 3.26 µM | TGI [10]: > 100 µM

C=C(c1nc2ccc(Cl)cc2[nH]c1=O)C(O)c1ccc(C(O)C(=O)c2nc3ccc(Cl)cc3[nH]c2=O)cc1 (stereo not given)
TGI [1]: > 100 µM | TGI [2]: > 100 µM | TGI [3]: > 100 µM | TGI [4]: > 100 µM | TGI [5]: > 100 µM | TGI [6]: > 100 µM | TGI [7]: > 100 µM | TGI [8]: > 100 µM | TGI [9]: > 100 µM | TGI [10]: > 100 µM

CCn1c(-c2nonc2N)nc2c(C#CC(C)(C)O)nc(OC[C@H](N)c3ccccc3)cc21
GI50 [1]: 2.37 µM | TGI [1]: 7.38 µM | GI50 [2]: 1.8 µM | TGI [2]: 7.28 µM | GI50 [3]: 4.11 µM | TGI [3]: 8.81 µM | GI50 [4]: 4.35 µM | TGI [4]: 8.83 µM | GI50 [5]: 3.09 µM | TGI [5]: 14.7 µM | GI50 [6]: 5.21 µM | TGI [6]: 12.4 µM | GI50 [7]: 6.04 µM | TGI [7]: 14 µM | GI50 [8]: 4.94 µM | TGI [8]: 11.2 µM | GI50 [9]: 2.35 µM | TGI [9]: 6.07 µM | GI50 [10]: 4.47 µM | TGI [10]: 8.67 µM

O=C(Cc1ccc(/C=C/C(=O)c2ncc[nH]2)cc1)Nc1cc(F)c(F)c(F)c1
GI50 [1]: 3.53 µM | TGI [1]: 8 µM | GI50 [2]: 7.3 µM | TGI [2]: > 25 µM | GI50 [3]: 0.861 µM | TGI [3]: 4.17 µM | GI50 [4]: 6.45 µM | TGI [4]: 21.1 µM | GI50 [5]: 4.81 µM | TGI [5]: 16.1 µM | GI50 [6]: 3.82 µM | TGI [6]: 9.11 µM | GI50 [7]: 0.665 µM | TGI [7]: 1.79 µM | GI50 [8]: 5.26 µM | TGI [8]: 20.1 µM | GI50 [9]: 3.56 µM | TGI [9]: 6.95 µM | GI50 [10]: 1.88 µM | TGI [10]: 6.79 µM
